From the NIST ThermoML archive (doi:10.1016/j.jct.2008.06.017)

Key:
[1] = xn = mol fraction of the nth substance listed; settings: Liquid, Vibrating tube method
[2] = Liquid, Vibrating tube method

C=COC(C)=O [vinyl acetate] + COC(=O)OC
[1]
Settings	mass density [kg/m3]
293.15 K, x2 = 0	931.95
293.15 K, x2 = 0.025	935.258
293.15 K, x2 = 0.0504	938.581
293.15 K, x2 = 0.1002	945.231
293.15 K, x2 = 0.1537	952.421
293.15 K, x2 = 0.1999	958.65
293.15 K, x2 = 0.25	965.315
293.15 K, x2 = 0.3001	972.123
293.15 K, x2 = 0.3498	978.865
293.15 K, x2 = 0.4002	985.701
293.15 K, x2 = 0.4503	992.611
293.15 K, x2 = 0.5	999.443
293.15 K, x2 = 0.5502	1006.39
293.15 K, x2 = 0.6001	1013.38
293.15 K, x2 = 0.6495	1020.26
293.15 K, x2 = 0.6934	1026.46
293.15 K, x2 = 0.7501	1034.48
293.15 K, x2 = 0.7971	1041.1
293.15 K, x2 = 0.8499	1048.6
293.15 K, x2 = 0.9002	1055.59
293.15 K, x2 = 0.9493	1062.61
293.15 K, x2 = 0.975	1066.22
303.15 K, x2 = 0	919.089
303.15 K, x2 = 0.025	922.4
303.15 K, x2 = 0.0501	925.708
303.15 K, x2 = 0.0999	932.33
303.15 K, x2 = 0.15	939.009
303.15 K, x2 = 0.1998	945.689
303.15 K, x2 = 0.2499	952.431
303.15 K, x2 = 0.3004	959.251
303.15 K, x2 = 0.35	965.996
303.15 K, x2 = 0.4003	972.857
303.15 K, x2 = 0.4488	979.518
303.15 K, x2 = 0.4999	986.544
303.15 K, x2 = 0.5496	993.403
303.15 K, x2 = 0.6	1000.41
303.15 K, x2 = 0.6489	1007.22
303.15 K, x2 = 0.6986	1014.13
303.15 K, x2 = 0.7494	1021.26
303.15 K, x2 = 0.8	1028.36
303.15 K, x2 = 0.8496	1035.38
303.15 K, x2 = 0.8999	1042.51
303.15 K, x2 = 0.9496	1049.56
303.15 K, x2 = 0.9753	1053.22
313.15 K, x2 = 0	906.116
313.15 K, x2 = 0.0248	909.387
313.15 K, x2 = 0.0501	912.718
313.15 K, x2 = 0.1003	919.392
313.15 K, x2 = 0.1499	925.976
313.15 K, x2 = 0.2001	932.73
313.15 K, x2 = 0.25	939.446
313.15 K, x2 = 0.2999	946.16
313.15 K, x2 = 0.3502	953.002
313.15 K, x2 = 0.3999	959.753
313.15 K, x2 = 0.45	966.575
313.15 K, x2 = 0.4996	973.402
313.15 K, x2 = 0.5501	980.351
313.15 K, x2 = 0.5998	987.189
313.15 K, x2 = 0.6502	994.195
313.15 K, x2 = 0.7	1001.12
313.15 K, x2 = 0.7501	1008.14
313.15 K, x2 = 0.7999	1015.14
313.15 K, x2 = 0.8499	1022.15
313.15 K, x2 = 0.8995	1029.12
313.15 K, x2 = 0.9501	1036.31
313.15 K, x2 = 0.9746	1039.75

COC(=O)OC [dimethyl carbonate] + C=Cc1ccccc1
[1], x1 = 1
Settings	mass density [kg/m3]
293.15 K	1069.79
303.15 K	1056.75
313.15 K	1043.37

COC(=O)OC [dimethyl carbonate]
[2]
Settings	mass density [kg/m3]
293.15 K	1069.79
303.15 K	1056.75
313.15 K	1043.37

C=COC(C)=O [vinyl acetate]
[2]
Settings	mass density [kg/m3]
293.15 K	931.95
303.15 K	919.089
313.15 K	906.116

C=CCOC(=O)C(=C)C [2-propenyl 2-methylpropenoate] + COC(=O)OC
[1]
Settings	mass density [kg/m3]
293.15 K, x2 = 0	932.965
293.15 K, x2 = 0.0254	935.07
293.15 K, x2 = 0.0498	937.164
293.15 K, x2 = 0.1006	941.619
293.15 K, x2 = 0.1507	946.22
293.15 K, x2 = 0.2	950.913
293.15 K, x2 = 0.2505	955.966
293.15 K, x2 = 0.2999	961.134
293.15 K, x2 = 0.3499	966.623
293.15 K, x2 = 0.4005	972.4
293.15 K, x2 = 0.449	978.208
293.15 K, x2 = 0.5	984.616
293.15 K, x2 = 0.5499	991.215
293.15 K, x2 = 0.5991	998.042
293.15 K, x2 = 0.6502	1005.49
293.15 K, x2 = 0.7	1013.17
293.15 K, x2 = 0.7502	1021.34
293.15 K, x2 = 0.8001	1029.9
293.15 K, x2 = 0.8499	1039
293.15 K, x2 = 0.9002	1048.71
293.15 K, x2 = 0.9499	1058.87
293.15 K, x2 = 0.975	1064.27
303.15 K, x2 = 0	922.525
303.15 K, x2 = 0.0253	924.591
303.15 K, x2 = 0.0501	926.656
303.15 K, x2 = 0.101	931.041
303.15 K, x2 = 0.15	935.458
303.15 K, x2 = 0.1999	940.145
303.15 K, x2 = 0.2505	945.101
303.15 K, x2 = 0.2999	950.165
303.15 K, x2 = 0.3499	955.527
303.15 K, x2 = 0.4003	961.195
303.15 K, x2 = 0.447	966.662
303.15 K, x2 = 0.5001	973.205
303.15 K, x2 = 0.5501	979.68
303.15 K, x2 = 0.5994	986.387
303.15 K, x2 = 0.6502	993.661
303.15 K, x2 = 0.7001	1001.19
303.15 K, x2 = 0.7503	1009.19
303.15 K, x2 = 0.8001	1017.58
303.15 K, x2 = 0.8499	1026.47
303.15 K, x2 = 0.9002	1035.99
303.15 K, x2 = 0.9499	1046
303.15 K, x2 = 0.975	1051.3
313.15 K, x2 = 0	912.072
313.15 K, x2 = 0.0247	914.028
313.15 K, x2 = 0.0499	916.075
313.15 K, x2 = 0.1002	920.29
313.15 K, x2 = 0.1496	924.626
313.15 K, x2 = 0.1997	929.2
313.15 K, x2 = 0.2495	933.94
313.15 K, x2 = 0.2999	938.979
313.15 K, x2 = 0.3502	944.239
313.15 K, x2 = 0.3999	949.688
313.15 K, x2 = 0.4499	955.431
313.15 K, x2 = 0.4997	961.436
313.15 K, x2 = 0.5503	967.862
313.15 K, x2 = 0.6001	974.504
313.15 K, x2 = 0.6497	981.462
313.15 K, x2 = 0.7001	988.916
313.15 K, x2 = 0.7498	996.664
313.15 K, x2 = 0.7998	1004.93
313.15 K, x2 = 0.85	1013.71
313.15 K, x2 = 0.8998	1023
313.15 K, x2 = 0.9498	1032.83
313.15 K, x2 = 0.9746	1037.94

C=C(C)C(=O)OCCCC [butyl 2-methyl-2-propenoate]
[2]
Settings	mass density [kg/m3]
293.15 K	895.231
303.15 K	885.991
313.15 K	876.19

C=CCOC(=O)C(=C)C [2-propenyl 2-methylpropenoate]
[2]
Settings	mass density [kg/m3]
293.15 K	932.965
303.15 K	922.525
313.15 K	912.072

COC(=O)OC [dimethyl carbonate] + C=C(C)C(=O)OCCCC
[1], x1 = 1
Settings	mass density [kg/m3]
293.15 K	1069.79
303.15 K	1056.75
313.15 K	1043.37

COC(=O)OC [dimethyl carbonate] + C=CCOC(=O)C(=C)C
[1], x1 = 1
Settings	mass density [kg/m3]
293.15 K	1069.79
303.15 K	1056.75
313.15 K	1043.37
